# Assay results: US20040076659A1, “Additive for livestock feeds” (priority 1994, published 2004)
# Columns and labels:
# [1] = tested on: dairy cows; assay: Tween 80 in total mixed ration, dairy herd trial (Example 4); assay type: in vivo, Holsteins
# Source text: One hundred and twenty cows and heifers in a dairy herd of Holsteins were divided into three treatment groups of 40 animals per group. All animals were given ad libitum access to a total mixed ration (TMR) based on grass silage, corn silage, grass hay, barley and canola meal. The treatments imposed were: Treatment 1—TMR without additive (Control). Treatment 2—TMR formulated to contain 0.2% (wt/wt) Tween 80+0.1% enzyme preparation (wt/wt). Treatment 3—TMR formulated to contain 0.2% (wt/wt) Tween 80. The Tween 80 was coated onto silica to form a product containing 50% Tween 80 and 50% silica. The enzyme preparation was obtained from Lucta S. A. (Barcelona, Spain). The preparation had the following activities: β-glucanase 263.0, xylanase 75.1 and amylase 542.6. Activities were expressed as nmol of reducing sugars released per mg of enzyme in 1 min at 0.83 mg/ml enzyme concentration. The trial lasted 13 weeks. Animals received their respective dietary treatments for 12 weeks. Milk production and feed intake were monitored until the 13th week (1 week after animals had been removed from dietary treatments). Feed (TMR) offered to each group was weighed and recorded at each feeding. Each group was fed to provide a weighback of 5%. Samples of the feed offered and refused were taken daily, composited into weekly samples and dried at 55° C. for 72 hr to determine dry matter (DM) content. Daily (AM and PM) milk production by each cow was recorded. Animals were weighed two days in a row immediately after milking on a monthly basis. Milk samples were taken for compositional analyses (fat, protein, and somatic cells) in the week preceding the trial, and then during the trial at 4 week intervals. Samples were taken from both the AM and the PM milkings and analyzed individually.
# [2] = Griffin et al., 1972; cited from earlier work
# [3] = tested on: rumen microbial cells enzyme source; assay: Microbial protein adsorption to ground barley straw; set-up: species or system cows
# Experimental: For the cellulose adhesion tests, the microbial enzyme source was resuspended and tested for adhesion on to a cellulose. substrate (barley straw, with 4% CP and ground through 0.5 mm sieve). […] 0.1 g of the straw in 5 ml of a bacterial cell-enzyme inoculum suspension, and then following the supernatant protein change with time. Readings were taken at 10, 20, 30, 60, and 120 min. At the end of the adsorption period, the assay contents were centrifuged at 2500 g max for 10 min to precipitate the solids, and the protein in the supernatant was precipitated out by 15% TCA solution and quantified by the Bicichoninic method (Smith et al., “Measurement of protein using bicinchonic acid,” Anal. Biochem. 150:76 (1984)). […]
# [4] = tested on: rumen cellulase activity; assay: In vitro cellulose degradation by rumen bacterial inoculum; assay type: biochemical, cows; settings: 0.25% surfactant in reaction mixture; regression on initial 24 hr
# Experimental: A bacterial fraction, largely free of protozoa, was prepared for the fermentation assays by using the procedure of Forsberg, “Some Effects of Arsenic on the Rumen Microflora; An In Vitro Study,” Can. J. Microbiol. 24:36 (1978). The digesta inoculum was resuspended and washed twice in an equivalent amount of 0.1 M phosphate buffer pH 6.8 to the rumen fluid. The inoculum provided both, the substrate and the enzyme used for cellulose degradation assay. Incubation periods were 0, 1.5, 3, 6, 12, 24, and 48 hr. Other incubation conditions were similar to those outlined in experiment 1 above. However, cellulose was determined by the method of Updergraff, supra, for the in vivo digestibility trial. The optimal level of Tween 80 obtained was adopted here and followed.
# [5] = tested on: Red Angus steers; assay: Performance of feedlot cattle, 119 days (Example 6); assay type: in vivo
# Experimental: Three hundred and twenty six Red Angus steers were stratified by weight and divided into eight pens. The pens were then randomly assigned to one of the following four dietary treatments:
# 3) 0.2% (wt/wt) glycanase enzyme (enzyme)
# The enzyme is marketed by GNC Bioferm Inc., Saskatoon, SK. The product contained the following activities (expressed as nmol of reducing sugars released from 1 mg of product per min: xylanase (336.6), β-glucanase (196.0), carboxymethylcellulase (44.4), and amylase (46.3). The basal diet was a total mixed ration consisting of rolled barley, corn silage and canola meal. Tween 80 was diluted with tap water (1 in 5) before it was applied. The total amount of feed required each day for the animals on each treatment was weighed separately in a mixer wagon and the appropriate quantity of Tween 80, enzyme, or their combination applied to it and mixed for ten minutes before feeding. An equal volume of water as applied to the Tween 80 treatment was also applied to the control and enzyme treatment to make the moisture content of the four experimental diets equal. The experimental diets were fed for a total of 119 days. Individual body weights were taken at the beginning and end of the experiment. Group body weights were taken at monthly intervals.
# [6] = In vitro true digestibility (IVTD) of orchardgrass hay, Ankom in vitro system, 22 h
# Experimental: The carriers were celite (Fisher Scientific Co. New Jersey, USA), diatomaceous earth (Sigma Chemical Co. St. Louis, Mo.) and LuctaCarrier (Lucta, S. A. Barcelona, Spain). Tween 80 was mixed with the carriers such that the resulting mixture contained 50% Tween 80 (wt/wt). The ability of Tween 80 in these mixtures to improve digestive efficiency was evaluated in vitro with orchardgrass hay that had been ground to pass through a 1 mm screen. Treatments included 0 (control), 0.1 and 0.2% liquid Tween 80, 0.1 and 0.2% Tween 80 in diatomaceous earth, 0.1 and 0.2% Tween 80 in celite, and 0.1 and 0.2% Tween 80 in LuctaCarrier. Appropriate quantities of each substrate were mixed with the additives and incubated in the Ankom in vitro system (Ankom Technology Fairport NY) for 22 h.
substance,measurement,setting,value
polyoxyethylene sorbitan monoleate [Tween 80],More milk per cow than control over the 12-week period,[1]; 0.2% Tween 80 (with or without 0.1% enzyme),64 kg
same,Average increase in milk production over control,"[1]; all cows lactating at least 3 weeks before start, 0.2% Tween 80 (with or without 0.1% enzyme)",0.76 kg/cow/day
same,Milk produced (kg) per kg of feed consumed,[1]; feed conversion efficiency,1.48 kg per kg of feed
same,More milk than control,"[1]; fresh cows, after the 4th week of lactation",approximately 4 kg more milk/cow/day
same,More milk than a cow on Tween 80 plus enzyme over 12 weeks,"[1]; mature cow, 0.2% Tween 80",74 kg
same,More milk than a cow on the control diet over 12 weeks,"[1]; mature cow, 0.2% Tween 80",110 kg
same,Average increase in milk production,"[1]; mature cows, 0.2% Tween 80",1.31 kg/day
same,HLB (hydrophile-lipophile balance),[2],15
same,Microbial protein adsorption extent,[3]; 0.05% additive,1.12b μg/mg
same,Microbial protein adsorption rate,[3]; 0.05% additive,0.032b (0.01) μg/mg/min
same,Microbial protein adsorption extent,[3]; 0.10% additive,1.21c μg/mg
same,Microbial protein adsorption rate,[3]; 0.10% additive,0.034c (0.02) μg/mg/min
same,Microbial protein adsorption extent,[3]; 0.25% additive,1.18c μg/mg
same,Microbial protein adsorption rate,[3]; 0.25% additive,0.035c (0.01) μg/mg/min
same,Microbial protein adsorption extent,[3]; 0.50% additive,1.19c μg/mg
same,Microbial protein adsorption rate,[3]; 0.50% additive,0.034c (0.02) μg/mg/min
same,Initial rate of cellulose degradation,[4],1.04c (0.32) μg/ml/hr
same,Average Daily Gain,[5]; 0.1% Tween 80,1.69a kg/d
same,Average daily gain higher than control,[5]; 0.1% Tween 80,6.3%
same,Feed Efficiency (Gain/Feed),[5]; 0.1% Tween 80,0.166
same,More weight gained than animals on the control diet,[5]; 0.1% Tween 80,approximately 5.8%
same,Total Weight Gain,[5]; 0.1% Tween 80 (dry matter basis),219.03a kg
same,In vitro true digestibility (IVTD),[6]; 0.1% Tween 80,54.20%
same,In vitro true digestibility (IVTD),[6]; 0.2% Tween 80,54.93%
